{"source": "patent EP1145714A1", "about": "“DRUGS” (Takeda Chemical Industries, Ltd., priority 1998, dated 2000)", "key": {"[1]": {"tested_on": "methotrexate-induced delayed vomiting in dogs", "test": "Methotrexate-induced delayed vomiting in dogs, oral dosing", "format": "in vivo, beagle dogs", "conditions": "methotrexate 2.5 mg/kg i.v.", "method": "3 or 4 beagle dogs (8.3 to 12.6 kg), male or female per one group were used. Methotrexate was intravenously administered at 2.5 mg/ml/kg. 8, 24 and 48 hours after methotrexate dosing, predetermined doses of the compound No. 3, ondansetron and 0.5% methyl cellulose solution were orally given. The compound No. 3 and 0.5 % methyl cellulose solution were dosed 30 minutes after a small amount of a feed was given to the animals, while ondansetron was dosed to the animals under fasting. The frequency of vomiting was counted in number, up to 72 hours after methotrexate dosing. The compound No. 3 was suspended in 0.5 % methyl cellulose solution and was then orally dosed at a ratio of 0.25 to 1 ml per 1 kg body weight. A predetermined volume of an ondansetron injection at a concentration of 0.2 w/v % was orally dosed. Additionally, 0.5 % methyl cellulose solution was orally given at a ratio of 1 ml per 1 kg body weight. The data relating to the frequency of vomiting, the latency and the time period from the occurrence of vomiting to the termination thereof were statistically analyzed by the Dunnett test, with reference to the difference from the control group.\nThe delayed vomiting suppression ratio and the suppression ratio of the total frequency of vomiting were calculated by the following formula."}, "[2]": {"tested_on": "morphine-induced vomiting in dogs", "test": "Morphine-induced vomiting in dogs, oral dosing", "format": "in vivo, beagle dogs", "conditions": "1 mg/kg p.o., morphine 0.3 mg/kg subcutaneous", "method": "Male 6 or 7 beagle dogs (8.8 to 14.5 kg) per one group were used. Morphine was subcutaneously administered at 0.3 mg/0. 03 ml/kg. 2.5 hours before morphine dosing, a small amount of a feed was given to the animals. 30 minutes thereafter, predetermined doses of the compound No. 3 were orally given. To a control animal group under no fasting was orally given a predetermined volume of 0.5 % methyl cellulose solution. A predetermined dose of ondansetron was orally given to the animals under fasting. To a control animal group of ondansetron under fasting was orally given a predetermined volume of physiological saline. The frequency of vomiting was counted up to 30 minutes after morphine dosing.\nThe compound No. 3 was suspended in 0.5 % methyl cellulose solution and was then orally administered at a ratio of 1 ml per 1 kg body weight. An injection of ondansetron at a concentration of 0.2 w/v % was orally dosed. Additionally, 0.5 % methyl cellulose solution was orally given at a ratio of 1 ml per 1 kg body weight, while physiological saline was orally given at a ratio of 0.5 ml per 1 kg body weight. The data relating to the frequency of vomiting, the time period (latency) until first vomiting and the time period from the occurrence of vomiting to the termination thereof were statistically analyzed by the Dunnett test or t test, with reference to the difference from the control group.\nThe retching suppression ratio and vomiting suppression ratio were calculated by the following formula. [Frequency of retching or vomiting in control] - [Frequency of retching or vomiting in animals dosed with compound No. 3] / [Frequency of retching or vomiting in control] x 100 (%) [formula]"}}, "data": [{"smiles": "Cc1nccn1CC1CCc2c(c3ccccc3n2C)C1=O", "note": "(centres unmarked) [Ondansetron, ondansetron, reference compound]", "values": [{"measurement": "Delayed vomiting suppression ratio (24 to 72 hours after MIX dosing)", "setting": "[1]; 10 mg/kg p.o. once daily", "value": 21, "unit": "% NS"}, {"measurement": "Suppression ratio of total frequency of vomiting (0 to 72 hours after MTX dosing)", "setting": "[1]; 10 mg/kg p.o. once daily", "value": 24, "unit": "% NS"}, {"measurement": "Duration (in hour; mean ± SD)", "setting": "[1]; 10 mg/kg p.o.", "value": "27.8 ± 2.7", "unit": "h"}, {"measurement": "Frequency of vomiting (mean ± SD), Day 0 (0-24 hours)", "setting": "[1]; 10 mg/kg p.o.", "value": 0, "unit": "b"}, {"measurement": "Frequency of vomiting (mean ± SD), Days 1 + 2 (24 - 72 hours)", "setting": "[1]; 10 mg/kg p.o.", "value": "9.3 ± 2.3"}, {"measurement": "Latency (in hour; mean ± SD)", "setting": "[1]; 10 mg/kg p.o.", "value": "28.6 ± 3.9", "unit": "h"}, {"measurement": "Frequency of vomiting (mean ± SD), Total frequency", "setting": "[1]; 10 mg/kg p.o., 72 hours", "value": "9.3 ± 2.3"}, {"measurement": "Number of dogs with vomiting/number of tested dogs", "setting": "[1]; 10 mg/kg p.o., 72 hours", "value": "3/3"}, {"measurement": "Acute vomiting suppression ratio", "setting": "[2]", "value": 48, "unit": "% NS"}, {"measurement": "Effect on vomiting (in words)", "setting": "[2]", "value": "did not suppress"}, {"measurement": "B: Frequency of vomiting (mean ± SD)", "setting": "[2]; under fasting, 30 minutes", "value": "1.7 ± 0.3"}, {"measurement": "C: Time period until first vomiting (minute; mean ± SD)", "setting": "[2]; under fasting, 30 minutes", "value": "5.0 ± 1.0", "unit": "min"}, {"measurement": "D: Duration of vomiting (minute; mean ± SD)", "setting": "[2]; under fasting, 30 minutes", "value": "1.0 ± 0.6", "unit": "min"}, {"measurement": "Number of dogs with vomiting/number of tested dogs", "setting": "[2]; under fasting, 30 minutes", "value": "3/3"}]}]}
